Patent US20260001834A1, “COMPOUND OR SALT THEREOF, LIPID COMPOSITION, PHARMACEUTICAL COMPOSITION, AND DELIVERY CARRIER” (FUJIFILM Corporation, priority 2023, published 2026)

Assays:
[1] = Particle diameter and polydispersity index (PdI) of mRNA-encapsulating lipid nanoparticles; type: physicochemical; details: EPO mRNA-encapsulating lipid nanoparticles, compound:DSPC:cholesterol:DMG-PEG2000=50:10:38.5:1.5; diluted with PBS
Experimental: (§1) The compounds shown in Table 9, 1,2-distearoyl-sn-glycero-3-phosphocholine (product name: COATSOME® MC-8080; NOF corporation) (hereinafter, DSPC), cholesterol (product name: Cholesterol HP; Nippon Seika Co., Ltd.), and 1,2-dimyristoyl-rac-glycero-3-(methylpolyoxyethylene 2000) (hereinafter, DMG-PEG2000) (product name: SUNBRIGHT® GM-020; NOF corporation) were dissolved in ethanol at a molar ratio (mol %) of compounds shown in Table 9:1,2-distearoyl-sn-glycero-3-phosphocholine:cholesterol:DMG-PEG2000=50:10:38.5:1.5 such that the total lipid concentration was 12.5 mmol/L, thereby obtaining an oil phase.
(§2) EPO mRNA (product name: CleanCap EPO mRNA (5moU); TriLink) was diluted with 50 mmol/L citrate buffer having a pH 4.0 such that the weight ratio of total lipid concentration to mRNA concentration is about 20:1, thereby obtaining a water phase. Then, the water phase and the oil phase were mixed together using NanoAssemblr (Precision NanoSystems) such that the volume ratio of water phase:oil phase was 3:1, and the mixed solution was 2-fold diluted with phosphate buffered physiological saline (PBS) or water, thereby obtaining a dispersion liquid of mRNA lipid nanoparticles. The dispersion liquid was dialyzed with 20 mM Tris buffer solution containing 8% sucrose using a dialysis cassette (Slide-A-Lyzer G2, MWCO: 10 kD, Thermo Fisher Scientific) to remove ethanol, thereby obtaining EPO mRNA-encapsulating lipid nanoparticles.
The particle diameter and the polydispersity index (PdI) of the mRNA-encapsulating lipid nanoparticles were obtained by measuring a dispersion liquid of lipid nanoparticles diluted with phosphate buffered physiological saline (PBS) using a particle size analyzer NanoSAQLA (Otsuka Electronics Co., Ltd.).

[2] = Encapsulation rate of mRNA in lipid nanoparticles; type: physicochemical; details: EPO mRNA-encapsulating lipid nanoparticles, compound:DSPC:cholesterol:DMG-PEG2000=50:10:38.5:1.5
Experimental: as §1, §2
<Evaluation of Encapsulation Rate of mRNA> (Quantification of Total mRNA Concentration)
EPO mRNA was diluted with MilliQ water to prepare a diluted sample in 2-fold dilution series from 100 μg/mL to 3.1 μg/mL, and a standard solution for calibration was prepared. 50 μL of the standard solution for calibration or the mRNA lipid nanoparticles was mixed with 450 μL of methanol to prepare a measurement solution.
The absorbance of each measurement solution at 260 nm and 330 nm was measured using a UV plate reader (Multiskan Go, Thermo Fisher Scientific), the absorbance at 330 nm was subtracted from the absorbance at 260 nm, and the result was used as the absorbance of each measurement solution. The total water phase nucleic acid concentration was calculated from the calibration curve using the absorbance of each sample measurement solution.
(Quantification of mRNA Concentration in Outer Water Phase)
The concentration of the outer water phase nucleic acid was quantified by a standard addition method using a QuanT-iT RiboGreen RNA Assay Kit (Thermo Fisher Scientific). First, a 20×TE buffer included in the above kit was diluted with water, thereby obtaining a 1×TE buffer. TE represents Tris/EDTA (ethylenediaminetetraacetic acid). EPO mRNA was diluted with a TE buffer such that the final concentration was 0 to 400 ng/mL to prepare a nucleic acid diluted series. 10 μL of mRNA lipid nanoparticles diluted 5-fold with TE buffer and 90 μL of a nucleic acid dilution series were mixed in a 96-well plate, 100 μL of a Ribogreen reagent diluted 200-fold with TE buffer was added to each well, and then fluorescence (excitation wavelength: 485 nm, fluorescence wavelength: 535 nm) was measured using a fluorescence plate reader (Infinite 200 Pro M nano+, TECAN). From the obtained results, the outer water phase nucleic acid concentration of each measurement solution was calculated according to the standard addition method.
(Calculation of Encapsulation Rate)
By using the quantification results of the total mRNA concentration and the mRNA concentration in the outer water phase that were obtained through the above steps, the mRNA encapsulation rate of the mRNA lipid nanoparticles was calculated according to the following Equation.

ICR mice = assay: EPO expression level in mice after intravenous EPO mRNA lipid nanoparticles (human EPO ELISA of plasma); type: in vivo; details: mRNA dosage 0.1 mg/kg, plasma 6 hours after administration, Comparative Example set to 1
Experimental: as §1, §2
The dispersion liquid of mRNA lipid nanoparticles prepared in above <Preparation of EPO mRNA-encapsulating lipid nanoparticles> was intravenously administered to ICR mice at a mRNA dosage of 0.1 mg/kg. 6 hours after the administration, blood was collected from the caudal vena cava, thereby obtaining plasma. The human EPO […] was quantified by using the obtained blood plasma and Erythropoietin (EPO) Human Elisa Kit (Abcam.plc). The quantitative value is described as a relative amount of EPO protein in a case where Comparative Example is set to 1.

Compound	Particle diameter (nm) [1] [nm]	PdI [1]	Nucleic acid encapsulation rate [2] [%]	Relative amount of EPO protein (with respect to Comparative Example 1) (ICR mice)
heptyl 3-ethyl-12-hexyl-6-(2-((2-hexyloctanoyl)oxy)ethyl)-10-oxo-9,11-dioxa-3,6-diazahexadecan-1 6-oate [Compound 5]	118	0.07	79	2.28
CCCCCCCCOC(=O)CCCC(CCCCCC)OC(=O)OCCN(CCOC(=O)CC(CCCCCCC)CCCCCCC)CCN(CC)CC (stereo not drawn) [Compound 8, octyl 3-ethyl-6-(2-((3-heptyldecanoyl)oxy)ethyl)-12-hexyl-10-oxo-9,11-dioxa-3,6-diazahexadecan-16-oate]	89	0.12	78	3.79
CCCCCCCCOC(=O)CCCCCCCCC(CCCCCC)OC(=O)OCCN(CCOC(=O)C(CCCC)CCCCCC)CCN(CC)CC (stereo not drawn) [Compound 1, octyl 6-(2-((2-butyloctanoyl)oxy)ethyl)-3-ethyl-12-hexyl-10-oxo-9,11-dioxa-3,6-diazahenicosan-21-oate]	112	0.03	89	
CCCCCCCCOC(=O)CCCC(CCCCCC)OC(=O)OCCN(CCOC(=O)C(CCCCCCC)CCCCCCC)CCN(CC)CC (stereo not drawn) [Compound 7, octyl 3-ethyl-6-(2-((2-heptylnonanoyl)oxy)ethyl)-12-hexyl-10-oxo-9,11-dioxa-3,6-diazahexadecan-16-oate]	82	0.12	79	3.82
CCCCCCCCC(CCCCCCCC)C(=O)OCCN(CCOC(=O)OC(CCCCCC)CCCC(=O)OCCCCCCC)CCN(CC)CC (stereo not drawn) [Compound 4, heptyl 3-ethyl-12-hexyl-6-(2-((2-octyldecanoyl)oxy)ethyl)-10-oxo-9,11-dioxa-3,6-diazahexadecan-1 6-oate]	85	0.12	90	3.09
CCCCCCCOC(=O)CCCC(CCCCCC)OC(=O)OCCN(CCOC(=O)CC(CCCCCCC)CCCCCCC)CCN(CC)CC (stereo not drawn) [Compound 6, heptyl 3-ethyl-6-(2-((3-heptyldecanoyl)oxy)ethyl)-12-hexyl-10-oxo-9,11-dioxa-3,6-diazahexadecan-16-oate]	98	0.11	77	4.91
CCCCCCOC(=O)CCCCCCCCC(CCCCCC)OC(=O)OCCN(CCOC(=O)C(CCCCCC)CCCCCC)CCN(CC)CC (stereo not drawn) [Compound 2, hexyl 3-ethyl-12-hexyl-6-(2-((2-hexyloctanoyl)oxy)ethyl)-10-oxo-9,11-dioxa-3,6-diazahenicosan-21-oate]	103	0.03	90	1.61

Continued, in another order:

Particle diameter (nm) [1] [nm]	PdI [1]	Nucleic acid encapsulation rate [2] [%]	Compound	Relative amount of EPO protein (with respect to Comparative Example 1) (ICR mice)
102	0.16	94	CCCCCCCOC(=O)CCCCC(CCCCCC)OC(=O)OCCN(CCCN(CC)CC)CCOC(=O)CC(CCCCCCC)CCCCCCC (stereo not drawn) [Compound 25, heptyl 3-ethyl-7-(2-((3-heptyldecanoyl)oxy)ethyl)-13-hexyl-11-oxo-10,12-dioxa-3,7-diazaoctadecan-18-oate]	4.77
91	0.09	94	CCCCCCCCC(CCCCCC)C(=O)OCCN(CCOC(=O)OC(CCCCCC)CCCC(=O)OCCCCCCC)CCN(CC)CC (stereo not drawn) [Compound 19, heptyl 3-ethyl-12-hexyl-6-(2-((2-hexyldecanoyl)oxy)ethyl)-10-oxo-9,11-dioxa-3,6-diazahexadecan-1 6-oate]	4.31
95	0.10	94	CCCCCCCOC(=O)CCCCC(CCCCCC)OC(=O)OCCN(CCCN(CC)CC)CCOC(=O)C(CCCCCCC)CCCCCCC (stereo not drawn) [Compound 22, heptyl 3-ethyl-7-(2-((2-heptylnonanoyl)oxy)ethyl)-13-hexyl-11-oxo-10,12-dioxa-3,7-diazaoctadecan-18-oate]	6.09
79	0.15	95	CCCCCCCCCC(CCCCCCCCC)C(=O)OCCN(CCOC(=O)OC(CCCCCC)CCCC(=O)OCCCCCCC)CCN(CC)CC (stereo not drawn) [Compound 17, heptyl 3-ethyl-12-hexyl-6-(2-((2-nonylundecanoyl)oxy)ethyl)-10-oxo-9,11-dioxa-3,6-diazahexadecan-16-oate]	1.91
75	0.10	86	CCCCCCCC(CCCCCCC)CC(=O)OCCN(CCOC(=O)OC(CCCCCC)CCCC(=O)OCC(CCCCCC)CCCCCC)CCN(CC)CC (stereo not drawn) [Compound 10, 2-hexyloctyl 3-ethyl-6-(2-((3-heptyldecanoyl)oxy)ethyl)-12-hexyl-10-oxo-9,11-dioxa-3,6-diazahexadecan-16-oate]	1.72
77	0.13	85	CCCCCCCC(CCCCCCC)CC(=O)OCCN(CCOC(=O)OC(CCCCCC)CCCC(=O)OCC(CCCCC)CCCCC)CCN(CC)CC (stereo not drawn) [Compound 9, 2-pentylheptyl 3-ethyl-6-(2-((3-heptyldecanoyl)oxy)ethyl)-12-hexyl-10-oxo-9,11-dioxa-3,6-diazahexadecan-16-oate]	2.30
129	0.12	89	CCCCCCCOC(=O)CCCCC(CCCCCC)OC(=O)OCCN(CCCN(CC)CC)CCOC(=O)C(CCCCCC)CCCCCC (stereo not drawn) [Compound 21, heptyl 3-ethyl-13-hexyl-7-(2-((2-hexyloctanoyl)oxy)ethyl)-11-oxo-10,12-dioxa-3,7-diazaoctadecan-1 8-oate]	1.65
79	0.13	95	CCCCCCCCCCC(CCCCCCCCCC)C(=O)OCCN(CCOC(=O)OC(CCCCCC)CCCC(=O)OCCCCCCC)CCN(CC)CC (stereo not drawn) [Compound 18, heptyl 6-(2-((2-decyldodecanoyl)oxy)ethyl)-3-ethyl-12-hexyl-10-oxo-9,11-dioxa-3,6-diazahexadecan-16-oate]	1.30
137	0.10	87	CCCCCCCOC(=O)CCCC(CCCCCC)OC(=O)OCCN(CCCN(CC)CC)CCOC(=O)C(CCCCCC)CCCCCC (stereo not drawn) [Compound 20, heptyl 3-ethyl-13-hexyl-7-(2-((2-hexyloctanoyl)oxy)ethyl)-11-oxo-10,12-dioxa-3,7-diazaheptadecan-17-oate]	1.68
